Here are results for two compounds from patent US20080220100A1, “Fermented panax notoginseng solution with anti-cancer effects and manufacture method thereof” (MICROBIO COMPANY LTD., TAIWAN, priority 2007, published 2008).

In one series the test system is Hep 3B/T2 cancer cells. The series is described as follows: SCID mice injected with Hep 3B/T2 cancer cells, fed fermented product for 35 days. The note with it: positive control group. It counts as in vivo. Here is the method:
SCID mice with 18 to 22 g body weight were classified into 5 groups and 10 mice per group. […] The tumor size of the SCID mice was measured every 3 to 4 days, and the weight of the heart, liver, spleen, lung, and kidney of the SCID mice was measured when the experiment was finished.

Series [1] is described as follows: Anti-oxidation capacity relative to vitamin E. The note with it: vitamin E defined to 100; medium with increasing share of black bean powder. The source says:
The same procedure carried out in Example 2 was repeated except that the content of the Panax notoginseng medium was changed. The content of the Panax notoginseng medium included 4 types: ¼ Panax notoginseng powder and ¾ black powder, ½ Panax notoginseng powder and 1/2 black powder, ¾ Panax notoginseng powder and ¼ black powder, and all Panax notoginseng powder.

In the case of `O=c1[nH]cc(F)c(=O)[nH]1` [5-FU, fluorouracil], in the series with Hep 3B/T2 cancer cells, the Heart weight is given as 143.2 ± 14.6 mg, the Kidney weight is 328.2 ± 26.2 mg, the Liver weight was 1171.3 ± 103.0 mg and the Lung weight was determined as 215.8 ± 23 mg. In the series with Hep 3B/T2 cancer cells, this compound registered a Spleen weight of 118.7 ± 35.6 mg and a Tumor weight of 376.1 ± 232.9 mg.
Turning to vitamin E, in series [1], the anti-oxidation capacity is on record as 100.
